Test results: US20250084071A1, “COMPOUNDS AND COMPOSITIONS FOR TREATING CONDITIONS ASSOCIATED WITH STING ACTIVITY” (NOVARTIS PHARMA AG, priority 2022, published 2025)

Biological target: T1, STING (Homo sapiens, UniProt Q86WV6, G230A/H232R/R293Q/R71H)
T1 construct: host or cells: THP1-Dual KO-IFNAR2 cells
Assay: STING reporter assay in THP1-Dual KO-IFNAR2 cells (luciferase reporter, 2′3′cGAMP stimulation)
Type: cell-based
Conditions: 2′3′cGAMP 15 μM, 24 h, luciferase reporter activity, GeoMean, read-out: Pharmaron, THP1_IFNAR2 STING 24 h Luci Normalized: GeoMean EC50
Procedure: STING pathway activation by the compounds described herein was measured using THP1-Dual™ cells (KO-IFNAR2).
THP1-Dual™ KO-IFNAR2 Cells (obtained from invivogen) were maintained in RPMI, 10% FCS, 5 ml P/S, 2 mM L-glut, 10 mM Hepes, and 1 mM sodium pyruvate. Compounds were spotted in empty 384 well tissue culture plates (Greiner 781182) by Echo for a final concentration of 0.0017-100 μM. Cells were plated into the TC plates at 40 μL per well, 2×10E6 cells/mL. For activation with STING ligand, 2′3′cGAMP (MW 718.38, obtained from Invivogen), was prepared in Optimem media.
The following solutions were prepared for each 1×384 plate: • Solution A: 2 mL Optimem with one of the following stimuli: • […] of 10 mM 2′3′cGAMP→150 μM stock • Solution B: 2 mL Optimem with 60 μL Lipofectamine 2000→Incubate 5 min at RT • 2 mL of solution A and 2 ml Solution B was mixed and incubated for 20 min at room temperature (RT). 20 μL of transfection solution (A+B) was added on top of the plated cells, with a final 2′3′cGAMP concentration of 15 μM. The plates were then centrifuged immediately at 340 g for 1 minute, after which they were incubated at 37° C., 5% CO2, >98% humidity for 24 h. Luciferase reporter activity was then measured. EC50 values were calculated by using standard methods known in the art.
Luciferase reporter assay: 10 μL of supernatant from the assay was transferred to white 384-plate with flat bottom and squared wells. One pouch of QUANTI-Luc™ Plus was dissolved in 25 mL of water. 100 μL of QLC Stabilizer per 25 mL of QUANTI-Luc™ Plus solution was added. 50 μL of QUANTI-Luc™ Plus/QLC solution per well was then added. Luminescence was measured on a Platereader (e.g., Spectramax I3X (Molecular Devices GF3637001)).
Luciferase reporter activity was then measured. EC50 values were calculated by using standard methods known in the art.

T1 sequence (Q86WV6 whole entry R71H/G230A/H232R/R293Q): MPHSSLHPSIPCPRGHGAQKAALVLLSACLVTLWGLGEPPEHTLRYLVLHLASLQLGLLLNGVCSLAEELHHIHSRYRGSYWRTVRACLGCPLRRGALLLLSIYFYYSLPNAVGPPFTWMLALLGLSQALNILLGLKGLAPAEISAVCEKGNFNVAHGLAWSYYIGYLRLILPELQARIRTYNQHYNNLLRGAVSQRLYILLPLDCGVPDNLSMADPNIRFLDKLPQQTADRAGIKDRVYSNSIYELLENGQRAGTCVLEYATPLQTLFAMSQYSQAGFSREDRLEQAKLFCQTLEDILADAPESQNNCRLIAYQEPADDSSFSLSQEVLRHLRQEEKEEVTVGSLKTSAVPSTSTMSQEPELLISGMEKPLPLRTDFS

EC50 [nM] | Compound
40 to 200 | O=S(=O)(CC1CCC1)Nc1c[nH]c2ccc(OCCc3ccc(C(F)(F)F)cc3)cc12 [Compound 119, 1-cyclobutyl-N-(5-(4-(trifluoromethyl)phenethoxy)-1H-indol-3-yl)methanesulfonamide]
200 to 1000 | O=S(=O)(Nc1c[nH]c2ccc(CCOc3ccc(C(F)(F)F)cc3)cc12)c1cccc(Cl)n1 [Compound 104, 6-chloro-N-(5-(2-(4-(trifluoromethyl)phenoxy)ethyl)-1H-indol-3-yl)pyridine-2-sulfonamide]
200 to 1000 | Cn1ccc(S(=O)(=O)Nc2c[nH]c3ccc(OCCc4ccc(C(F)(F)F)cc4)cc23)n1 [Compound 116, 1-methyl-N-(5-(4-(trifluoromethyl)phenethoxy)-1H-indol-3-yl)-1H-pyrazole-3-sulfonamide]
200 to 1000 | O=S(=O)(CCC(F)(F)F)Nc1c[nH]c2ccc(OCCc3ccc(C(F)(F)F)cc3)cc12 [Compound 120, 3,3,3-trifluoro-N-(5-(4-(trifluoromethyl)phenethoxy)-1H-indol-3-yl)propane-1-sulfonamide]
200 to 1000 | Cn1cnc(S(=O)(=O)Nc2c[nH]c3ccc(CCOc4ccc(C(F)(F)F)cc4)cc23)c1 [Compound 111, 1-methyl-N-(5-(2-(4-(trifluoromethyl)phenoxy)ethyl)-1H-indol-3-yl)-1H-imidazole-4-sulfonamide]
200 to 1000 | O=S(=O)(CC1CCOCC1)Nc1c[nH]c2ccc(CCOc3ccc(C(F)(F)F)cc3)cc12 [Compound 108, 1-(tetrahydro-2H-pyran-4-yl)-N-(5-(2-(4-(trifluoromethyl)phenoxy)ethyl)-1H-indol-3-yl)methanesulfonamide]
200 to 1000 | O=S(=O)(CC1CCCO1)Nc1c[nH]c2ccc(CCOc3ccc(C(F)(F)F)cc3)cc12 (centres unmarked) [Compound 125, 1-(tetrahydrofuran-2-yl)-N-(5-(2-(4-(trifluoromethyl)phenoxy)ethyl)-1H-indol-3-yl)methanesulfonamide]
200 to 1000 | COCCS(=O)(=O)Nc1c[nH]c2ccc(OCCc3ccc(C(F)(F)F)cc3)cc12 [Compound 123, 2-methoxy-N-(5-(4-(trifluoromethyl)phenethoxy)-1H-indol-3-yl)ethane-1-sulfonamide]
200 to 1000 | O=S(=O)(Nc1c[nH]c2ccc(OCCc3ccc(C(F)(F)F)cc3)cc12)C1CCOCC1 [Compound 115, N-(5-(4-(trifluoromethyl)phenethoxy)-1H-indol-3-yl)tetrahydro-2H-pyran-4-sulfonamide]
200 to 1000 | O=S(=O)(CC1CCC1)Nc1c[nH]c2ccc(CCOc3ccc(C(F)(F)F)cc3)cc12 [Compound 114, 1-cyclobutyl-N-(5-(2-(4-(trifluoromethyl)phenoxy)ethyl)-1H-indol-3-yl)methanesulfonamide]
40 to 200 | O=S(=O)(Cc1ccccc1)Nc1c[nH]c2ccc(OCCc3ccc(C(F)(F)F)cc3)cc12 [Compound 122, 1-phenyl-N-(5-(4-(trifluoromethyl)phenethoxy)-1H-indol-3-yl)methanesulfonamide]
200 to 1000 | O=S(=O)(CCC1CC1)Nc1c[nH]c2ccc(CCOc3ccc(C(F)(F)F)cc3)cc12 [Compound 112, 2-cyclopropyl-N-(5-(2-(4-(trifluoromethyl)phenoxy)ethyl)-1H-indol-3-yl)ethane-1-sulfonamide]
200 to 1000 | CCS(=O)(=O)Nc1c[nH]c2ccc(OCCc3ccc(C(F)(F)F)cc3)cc12 [Compound 121, N-(5-(4-(trifluoromethyl)phenethoxy)-1H-indol-3-yl)ethanesulfonamide]
40 to 200 | O=S(=O)(CCC(F)(F)F)Nc1c[nH]c2ccc(CCOc3ccc(C(F)(F)F)cc3)cc12 [Compound 106, 3,3,3-trifluoro-N-(5-(2-(4-(trifluoromethyl)phenoxy)ethyl)-1H-indol-3-yl)propane-1-sulfonamide]
200 to 1000 | O=S(=O)(Nc1c[nH]c2ccc(CCOc3ccc(C(F)(F)F)cc3)cc12)C1CCOCC1 [Compound 105, N-(5-(2-(4-(trifluoromethyl)phenoxy)ethyl)-1H-indol-3-yl)tetrahydro-2H-pyran-4-sulfonamide]
40 to 200 | O=S(=O)(CC1CC1)Nc1c[nH]c2ccc(OCCc3ccc(C(F)(F)F)cc3)cc12 [Compound 124, 1-cyclopropyl-N-(5-(4-(trifluoromethyl)phenethoxy)-1H-indol-3-yl)methanesulfonamide]
200 to 1000 | O=S(=O)(CC1CCCO1)Nc1c[nH]c2ccc(OCCc3ccc(C(F)(F)F)cc3)cc12 (centres unmarked) [Compound 117, 1-(tetrahydrofuran-2-yl)-N-(5-(4-(trifluoromethyl)phenethoxy)-1H-indol-3-yl)methanesulfonamide]
200 to 1000 | O=S(=O)(CC1CC1)Nc1c[nH]c2ccc(CCOc3ccc(C(F)(F)F)cc3)cc12 [Compound 126, 1-cyclopropyl-N-(5-(2-(4-(trifluoromethyl)phenoxy)ethyl)-1H-indol-3-yl)methanesulfonamide]
200 to 1000 | Cn1cnc(S(=O)(=O)Nc2c[nH]c3ccc(OCCc4ccc(C(F)(F)F)cc4)cc23)c1 [Compound 118, 1-methyl-N-(5-(4-(trifluoromethyl)phenethoxy)-1H-indol-3-yl)-1H-imidazole-4-sulfonamide]
200 to 1000 | CCS(=O)(=O)Nc1c[nH]c2ccc(CCOc3ccc(C(F)(F)F)cc3)cc12 [Compound 113, N-(5-(2-(4-(trifluoromethyl)phenoxy)ethyl)-1H-indol-3-yl)ethanesulfonamide]
200 to 1000 | Cn1ccc(S(=O)(=O)Nc2c[nH]c3ccc(CCOc4ccc(C(F)(F)F)cc4)cc23)n1 [Compound 107, 1-methyl-N-(5-(2-(4-(trifluoromethyl)phenoxy)ethyl)-1H-indol-3-yl)-1H-pyrazole-3-sulfonamide]
200 to 1000 | COCCS(=O)(=O)Nc1c[nH]c2ccc(CCOc3ccc(C(F)(F)F)cc3)cc12 [Compound 109, 2-methoxy-N-(5-(2-(4-(trifluoromethyl)phenoxy)ethyl)-1H-indol-3-yl)ethane-1-sulfonamide]
40 to 200 | Cn1cc(S(=O)(=O)Nc2c[nH]c3ccc(OCCc4ccc(C(F)(F)F)cc4)cc23)cn1 [Compound 110, 1-methyl-N-(5-(4-(trifluoromethyl)phenethoxy)-1H-indol-3-yl)-1H-pyrazole-4-sulfonamide]
